Source: PMC8092108, “Mycophenolate suppresses inflammation by inhibiting prostaglandin synthases: a study of molecular and experimental drug repurposing” (PeerJ, 2021)
Several values for one entry are separate records, joined by “and”; a condition that tells them apart may be missing. Equal values may be shown once.

Legend:
[1] = cited from earlier work
[2] = tested on: carrageenan-induced paw edema; experiment: Carrageenan-induced rat paw edema test; format: in vivo; parameters: key to Tukey's test Summary: Significant (s); non-significant (ns); conditions: for Tukey's test Significant? / Tukey's test Summary: mean paw size 3–5 h; for Rat paw size: individual rats 1-7
Protocol: The in vivo assay was performed by the rat paw edema inhibition test as previously described ([Morris, 2003]; [Winter, Risley & Nuss, 1962]). Forty-nine male adult albino rats weighing […] were obtained from the Animal Breeding Center at the College of Veterinary Medicine, King Faisal University, and were randomly divided into seven groups (n = 7/group). The animal groups included the nontreated control group, carrageenan group, and five groups receiving carrageenan and treated with either indomethacin, celecoxib, or MMF at three doses (12.5, 25, and 50 mg/kg). All rats were allowed free access to food and water. All cages were kept in controlled rooms at 25 °C and exposed to a 12-h light/dark cycle. MMF and two reference drugs, indomethacin and celecoxib, were suspended in 1% NaCMC in normal saline. A 1% carrageenan solution in normal saline was injected into the subplantar area of the right hind paw of rats. One hour before injection of carrageenan, rats were given either indomethacin or celecoxib at a dose rate of 10 mg/kg or MMF at three dose levels of 12.5, 25, and 50 mg/kg by oral administration. […] The measurements were blind to avoid measurement bias. The King Faisal University Ethics Committee (approval no. KFU-REC/2020-10-11) approved all animal experiments. Since no samples were taken from rats, there were no anesthesia procedures. The size of the hind paw was only measured in non-anesthetized rats. At the end of the experiment, all rats were euthanized according to the regulations of the King Faisal University Ethics Committee by an overdose of pentobarbital (200 mg/kg IP) and decapitation. The effect of MMF at different doses on relieving rat paw edema was compared with the control and standard NSAID-treated groups. Significant differences were determined by one-way analysis of variance (ANOVA) with Tukey’s post hoc test. All steps were implemented using GraphPad prism software (GraphPad Software, La Jolla, CA, USA).

[3] = target: T1, COX-1 (Ovis aries, UniProt P05979); experiment: COX inhibitor screening assay, COX-1; format: biochemical
T1 construct: purchased
T1 sequence (P05979 25-600): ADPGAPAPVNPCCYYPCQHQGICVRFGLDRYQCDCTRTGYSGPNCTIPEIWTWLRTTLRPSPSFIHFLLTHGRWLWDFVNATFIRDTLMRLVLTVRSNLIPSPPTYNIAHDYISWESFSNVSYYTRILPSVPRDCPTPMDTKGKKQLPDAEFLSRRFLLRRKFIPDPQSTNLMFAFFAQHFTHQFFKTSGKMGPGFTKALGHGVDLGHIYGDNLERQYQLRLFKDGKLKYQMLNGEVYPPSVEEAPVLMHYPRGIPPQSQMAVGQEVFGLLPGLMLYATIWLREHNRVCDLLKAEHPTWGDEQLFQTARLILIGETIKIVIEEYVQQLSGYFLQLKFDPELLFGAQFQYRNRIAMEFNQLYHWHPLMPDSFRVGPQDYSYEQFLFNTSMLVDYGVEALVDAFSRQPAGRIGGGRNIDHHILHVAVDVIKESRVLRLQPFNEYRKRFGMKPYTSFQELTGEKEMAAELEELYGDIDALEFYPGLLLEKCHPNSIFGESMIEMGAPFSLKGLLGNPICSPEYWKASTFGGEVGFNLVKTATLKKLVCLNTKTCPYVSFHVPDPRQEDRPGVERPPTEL
Protocol: The inhibitory effects of the drugs MMF and MPA on COX-1 and COX-2 were measured using the COX inhibitor screening assay kit and LOX inhibitor screening kit. […] Briefly, the reaction buffer (Tris–HCl buffer, pH 8.0) containing 5 mM EDTA, 2 mM phenol, and 1 µM hematin was measured into test tubes. The test drugs were dissolved in dimethyl sulfoxide and added to the tubes to final concentrations of […]. COX-1 or COX-2 was added to the test tubes and preincubated for 10 min at 37 °C. Arachidonic acid was then added, and the tubes were incubated for 2 min at 37 °C. The enzyme immunoassay was used to measure the concentration of the product prostaglandin F2α (PGF2α). The estimated values were determined after comparison to the predetermined standard curve. The IC50 was determined after three different experiments. The selectivity index was calculated from Eq. (1):
(1) Selectivity index=IC50COX−1/IC50COX−2

[4] = tested on: atopic dermatitis and vitiligo; conditions: cited from earlier work
[5] = Indomethacin vs. MMF 12.5 mg/kg

- IC50 [3]: 5.53 µM
SMILES: COc1c(C)c2c(c(O)c1C/C=C(\C)CCC(=O)OCCN1CCOCC1)C(=O)OC2 [Mycophenolate mofetil]
- Maximal serum concentration (Cmax) ([1]; after 1–2 g oral doses, ref Ferreira et al., 2020): 18000 to 20000 ng/mL
- Conversion to MPA by liver carboxylesterases 1 and 2 ([1]; after oral intake, ref Lamba et al., 2014): completely converted to MPA
- Rat paw size at 3, 4 and 5 h after treatment ([2]; 12.5, 25, 50 mg/kg MMF): dose-dependent decrease in edema
- Rat paw edema 2–5 h after drug administration ([2]; 12.5, 25 and 50 mg/kg MMF oral): significant decrease
- Tukey's test Significant? ([2]; Carrageenan vs. MMF 12.5 mg/kg): Yes
- Tukey's test Summary ([2]; Carrageenan vs. MMF 12.5 mg/kg): s
- Tukey's test Significant? ([2]; Carrageenan vs. MMF 25 mg/kg): Yes
- Tukey's test Summary ([2]; Carrageenan vs. MMF 25 mg/kg): s
- Tukey's test Significant? ([2]; Carrageenan vs. MMF 50 mg/kg): Yes
- Tukey's test Summary ([2]; Carrageenan vs. MMF 50 mg/kg): s
- Tukey's test Significant? ([2]; Celecoxib vs. MMF 12.5 mg/kg): No
- Tukey's test Summary ([2]; Celecoxib vs. MMF 12.5 mg/kg): ns
- Tukey's test Significant? ([2]; Celecoxib vs. MMF 25 mg/kg): No
- Tukey's test Summary ([2]; Celecoxib vs. MMF 25 mg/kg): ns
- Tukey's test Significant? ([2]; Celecoxib vs. MMF 50 mg/kg): No
- Tukey's test Summary ([2]; Celecoxib vs. MMF 50 mg/kg): ns
- Tukey's test Significant? [2, 5]: No
- Tukey's test Summary [2, 5]: ns
- Tukey's test Significant? ([2]; Indomethacin vs. MMF 25 mg/kg): No
- Tukey's test Summary ([2]; Indomethacin vs. MMF 25 mg/kg): ns
- Rat paw size ([2]; MMF 12.5 mg Kg oral, Time (h) 1): 0.75 cm (3×) and 0.73 cm (3×) and 0.7 cm
- Rat paw size ([2]; MMF 12.5 mg Kg oral, Time (h) 2): 0.75 cm (3×) and 0.76 cm (3×) and 0.8 cm
- Rat paw size ([2]; MMF 12.5 mg Kg oral, Time (h) 3): 0.75 cm and 0.8 cm
- Rat paw size ([2]; MMF 25 mg/Kg oral, Time (h) 1): 0.74 cm (2×) and 0.75 cm (4×) and 0.77 cm
- Rat paw size ([2]; MMF 25 mg/Kg oral, Time (h) 2): 0.7 cm (3×) and 0.65 cm and 0.71 cm and 0.75 cm and 0.69 cm
- Rat paw size ([2]; MMF 25 mg/Kg oral, Time (h) 3): 0.59 cm and 0.6 cm and 0.55 cm (2×) and 0.5 cm and 0.65 cm and 0.57 cm
- Rat paw size ([2]; MMF 25 mg/Kg oral, Time (h) 4): 0.46 cm and 0.5 cm (2×) and 0.45 cm (2×) and 0.47 cm and 0.48 cm
- Rat paw size ([2]; MMF 25 mg/Kg oral, Time (h) 5): 0.45 cm (5×) and 0.5 cm and 0.4 cm
- Rat paw size ([2]; MMF 25 mg/Kg oral, Time (h) 6): 0.57 cm and 0.6 cm (2×) and 0.5 cm and 0.65 cm and 0.55 cm and 0.54 cm
- Rat paw size ([2]; MMF 50mg/kg oral, Time (h) 1): 0.75 cm
- Rat paw size ([2]; MMF 50mg/kg oral, Time (h) 2): 0.75 cm and 0.7 cm (3×) and 0.65 cm and 0.66 cm and 0.68 cm
- Rat paw size ([2]; MMF 50mg/kg oral, Time (h) 3): 0.65 cm (2×) and 0.6 cm (2×) and 0.55 cm and 0.62 cm and 0.58 cm
- Rat paw size ([2]; MMF 50mg/kg oral, Time (h) 4): 0.55 cm (2×) and 0.5 cm (2×) and 0.52 cm and 0.53 cm and 0.51 cm
- Rat paw size ([2]; MMF 50mg/kg oral, Time (h) 5): 0.45 cm (3×) and 0.5 cm and 0.46 cm (3×)
- Rat paw size ([2]; MMF 50mg/kg oral, Time (h) 6): 0.6 cm (3×) and 0.5 cm and 0.65 cm and 0.56 cm and 0.58 cm
- Rat paw edema after treatment ([2]; MMF 12.5–50 mg/kg, indomethacin or celecoxib 10 mg/kg oral): significantly relieved
- Most effective dose in the rat paw edema test ([2]; oral): 50 mg/kg
- Treatment of atopic dermatitis ([4]; oral 1–2 g daily for 12 weeks, ref Grundmann-Kollmann et al., 2001, Neuber et al., 2000): highly effective
- Tolerability of high topical concentration ([4]; topical 15% MMF, ref Handjani et al., 2017): well tolerated
- Treatment of vitiligo ([4]; topical application of 15% MMF, ref Handjani et al., 2017): highly effective
